According to article PMC4976923, “Potent Allosteric Dengue Virus NS5 Polymerase Inhibitors: Mechanism of Action and Resistance Profiling” (PLoS Pathogens, 2016):
Like-named read-outs stand apart in the source and are kept apart here.

How the values were obtained:
[1] = test system: DENV2 replicon cells; assay: DENV2 replicon cells from HuH-7, BHK-21 and A549 backgrounds, range; type: cell-based; settings: Dengue virus, range across cell backgrounds
[2] = test system: DENV2-NGC virus Wild Type; assay: WT DENV2-NGC virus in A549 cells, plaque assay; settings: Dengue virus, DENV2, A549, 48 h, read-out: EC50, DENV2-NGC Virus, Wild Type
Method: 8 Plaque assay. Virus stock was produced b y harvesting the supernatant of DENV2 full -length
9 RNA- transf ected BHK -21 cells at 24, 48, 72, 96, and 120 hours post transfection. Virus titer
10 and morphology were determined by st andard plaque assa y. Briefl y, a seri es of 10 -fold
11 dilutions was prepared by first diluting 50 µl virus stock with 450 µl RPMI 1640 m edia
12 containing 2 % FBS to obtain 10-1 dilution and then further diluted until a final 10 -6 dilution
13 was achieved. Confluent BHK-21 cells (1 × 10^5 cells per well, plated 2 da ys in advance)
14 grown in 24-well plate was added with 200 µl of each dilution per well. Duplicates were
15 prepared for each time point and dilution factor. The infection was allowed to proceed at
16 30°C for 1 hour, followed by removing the m edia and adding 500 µl 0.8% methyl-cellulose
17 overla y (containing RPM I, 2 % FBS, 1 % P/S, 0.05 % NaHCO 3, 25 mM Na Hepes, and
18 0.5 % DMSO) into each well. The plates were incubated for 5 da ys at 37 °C in 5 % CO 2
19 before fixing in 3.7 % formaldehyde and staining with 1 % cr ystal violet. The viral titer was
20 calculated as plaque- forming unit (PFU) per ml.

[3] = test system: DENV2-NGC Ren-LUC Replicon in HuH-7; assay: Stable HuH-7 DENV2-NGC renilla luciferase replicon assay; type: cell-based; settings: read-out: HuH-7 DENV Replicon, DENV2, EC50
[4] = in vitro; type: cell-based; settings: human; 4–5 days
[5] = in vitro; type: cell-based
Method: (§1) A549, BHK-21 and Huh7 cells bearing stable DENV2 sub-genomic replicon or transiently electroporated DENV2-NGC replicon or infectious virus cDNAs were seeded into 384-well microplate (3,000 cells per well). After over-night incubation at 37°C with 5% CO2, the cells were treated with 2-fold serially diluted compounds, starting from 20 or 50 μM. At 48 hr of post-incubation, renilla luciferase activities were measured with the ViviRen live-cell substrate (Promega, USA) according to the manufacturer’s protocol. CellTiter-Glo reagent (Promega, USA) was then added to determine cytotoxic effects of compounds. For the HCV replicon assay, Huh-7.5 cells harboring the HCV replicon were seeded into a 96-well microplate (20,000 cells per well). At 48 hr after compound treatment, cells were assayed for firefly luciferase activity by using a Bright-Glo luciferase assay (Promega, USA). NITD-008, a nucleoside inhibitor of DENV and HCV was added as a control.

[6] = test system: DENV2-NGC Ren-LUC Replicon in A549; assay: Stable A549 DENV2-NGC renilla luciferase replicon assay; type: cell-based; settings: Dengue virus, 48 hr
Method: as §1
1 containing 2 % FBS, 1mM L-glutamine and 1 % penicillin-streptom ycin and incubated over-
At 24 h post-seeding, cells were inf ected with DENV1-4 at
3 multiplicity of infection [MOI] of 0.3-1 (DENV1, strain MY97- 10245, MOI = 0.5; DENV2,
5 MY01-22713; MOI = 0.5) and treated immediatel y with 10- point, 3-fold serially diluted
6 compounds (at final 0.5% DMSO concent ration; 4). At 48 h post-infection , cells wer e fix ed
8 DENV envelope protein ) and DRAQ5 (for nucl ear DNA) . Quantifications of DENV
9 envelope protein were determined using the Opera high content imaging s ystem and anal ysis
10 software (Perkin Elmer, USA). Calculation of EC50 values were perfo rmed using Helios
11 software p ackage (Nov ar tis, Basel).
13 Compound testing in DENV2 and HCV sub -genomic replicon assays. A549, BHK -21 and
14 Huh7 DENV2 sub- geno mic replicon cells were seed ed at a d ensit y o f 3,000 cells per w ell
15 in a 384-well microplate. After incubation at 37 °C with 5 % CO2 overnight, the cells were […]
17 µM concentrations. At 48 hr of post-incubation, r enilla luciferas e activities were measured […]

[7] = test system: DENV2-NGC virus E802D; type: cell-based; settings: A549, MOI = 0.2; 48 hr; plaque assay
[8] = Dengue virus, DENV2, Huh-7, 48 h
[9] = hamster, 2 days, read-out: CC50, BHK-21
[10] = human, HuH-7 (DENV2 replicon cells), 48 hr, ATP levels
[11] = human, 2 days, read-out: CC50, A549

Compound	EC50 [1] [µM]	EC50 [2] [µM]	EC50 [3, 8] [µM]	CC50 [4] [µM]	CC50 [5, 9] [µM]	CC50 [5, 10] [µM]	CC50 [5, 11] [µM]	EC50 [6] [µM]	EC50 [7] [µM]	EC50 ([3]; 48 hr) [µM]
COc1cccc(S(=O)(=O)NC(=O)c2cc(-c3ccc(C#CCO)s3)c(OC)cc2OC)c1 [Compound 27]	1 to 5	0.87	3.9 ± 0.62	> 50	> 50	> 100	> 50	2.3	1.42	–
COc1cccc(S(=O)(=O)NC(=O)c2cc(-c3ccc(C#CCO)s3)c(OC)cc2C)c1 [Compound 26i]	12 to 15	–	12.1	–	–	> 50	> 50	15.4	–	–
COc1cc(OC)c(-c2ccc(C#CCO)s2)cc1C(=O)NS(=O)(=O)c1cccc2cccnc12 [Compound 29]	1 to 5	1.11	~2	> 50	> 50	> 50	> 50	2.8	5.8	1.9 ± 0.2
